Source: ChEMBL document CHEMBL1133064, “1-[2-[(Heteroaryloxy)heteroaryl]carbamoyl]indolines: novel and selective 5-HT2C receptor inverse agonists with potential as antidepressant/anxiolytic agents” (Bioorg Med Chem Lett, 2000)

Experiments:
[1] = molecular target: 5-hydroxytryptamine receptor 2B (Homo sapiens, UniProt P41595); test: Binding affinity towards human cloned 5-HT2B receptor of HEK293 cells by displacement of [3H]5-HT; format: cell-based
[2] = molecular target: 5-hydroxytryptamine receptor 2A (Homo sapiens, UniProt P28223); test: Binding affinity towards human cloned 5-hydroxytryptamine 2A receptor of HEK293 cells by displacement of [3H]ketanserin; format: cell-based
Sequence of 5-hydroxytryptamine receptor 2A (P28223 whole entry): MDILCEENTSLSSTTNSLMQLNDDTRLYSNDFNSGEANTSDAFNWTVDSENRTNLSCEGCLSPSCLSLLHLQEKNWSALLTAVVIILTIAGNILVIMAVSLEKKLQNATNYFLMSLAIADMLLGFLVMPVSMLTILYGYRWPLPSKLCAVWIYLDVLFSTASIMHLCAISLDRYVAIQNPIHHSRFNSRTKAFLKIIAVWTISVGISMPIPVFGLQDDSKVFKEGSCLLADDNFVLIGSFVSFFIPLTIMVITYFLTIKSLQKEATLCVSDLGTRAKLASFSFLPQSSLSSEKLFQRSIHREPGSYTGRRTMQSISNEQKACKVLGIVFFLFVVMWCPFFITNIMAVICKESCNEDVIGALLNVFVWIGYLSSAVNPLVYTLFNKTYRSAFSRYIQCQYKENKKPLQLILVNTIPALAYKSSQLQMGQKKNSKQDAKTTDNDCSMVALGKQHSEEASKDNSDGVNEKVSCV

[3] = molecular target: T1, 5-hydroxytryptamine receptor 2C (Homo sapiens, UniProt P28335); test: Binding affinity towards human cloned 5-hydroxytryptamine 2C receptor of HEK293 cells by displacement of [3H]mesulergine; format: cell-based
T1 sequence (P28335 whole entry): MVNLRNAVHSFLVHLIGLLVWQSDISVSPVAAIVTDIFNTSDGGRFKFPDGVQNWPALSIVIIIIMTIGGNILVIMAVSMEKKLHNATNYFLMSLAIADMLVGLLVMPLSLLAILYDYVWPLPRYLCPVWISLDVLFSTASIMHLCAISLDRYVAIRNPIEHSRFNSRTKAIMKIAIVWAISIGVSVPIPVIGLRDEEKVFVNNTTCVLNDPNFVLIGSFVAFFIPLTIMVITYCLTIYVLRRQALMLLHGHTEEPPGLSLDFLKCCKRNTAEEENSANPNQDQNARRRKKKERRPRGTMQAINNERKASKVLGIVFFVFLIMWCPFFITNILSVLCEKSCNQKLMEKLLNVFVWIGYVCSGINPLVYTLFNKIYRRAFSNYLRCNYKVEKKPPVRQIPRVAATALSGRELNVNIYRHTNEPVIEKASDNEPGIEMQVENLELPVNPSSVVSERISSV

[4] = molecular target: Serotonin receptor (2b and 2c) (Homo sapiens) (UniProt P41595+P28335); test: Selectivity expressed as ratio of serotonin 5-HT2C receptor over serotonin 5-HT2B receptor; format: protein assay
[5] = molecular target: Serotonin 2 receptors; 5-HT2a & 5-HT2c (Homo sapiens) (UniProt P28223+P28335); test: Selectivity expressed as ratio of serotonin 5-HT2C receptor over serotonin 5-HT2A receptor; format: protein assay
Sequence of Serotonin 2 receptors; 5-HT2a & 5-HT2c (Homo sapiens) (P28223 whole entry, looked up, one chain of several): as the sequence (P28223 whole entry) above

[6] = tested on: Rattus norvegicus; test: Percent reversal of mCPP induced hypolocomotion after peroral administration at 5 mg/kg in rat; format: functional; settings: route oral
[7] = tested on: Rattus norvegicus; test: Dose required to reverse mCPP induced hypolocomotion by 50% at 7 mg/kg, ip administration 30 min pretest; format: functional; settings: 0.5 h, route intraperitoneal, read-out: ID50 (the source's name)

Sequence of 5-hydroxytryptamine receptor 2B (P41595 whole entry): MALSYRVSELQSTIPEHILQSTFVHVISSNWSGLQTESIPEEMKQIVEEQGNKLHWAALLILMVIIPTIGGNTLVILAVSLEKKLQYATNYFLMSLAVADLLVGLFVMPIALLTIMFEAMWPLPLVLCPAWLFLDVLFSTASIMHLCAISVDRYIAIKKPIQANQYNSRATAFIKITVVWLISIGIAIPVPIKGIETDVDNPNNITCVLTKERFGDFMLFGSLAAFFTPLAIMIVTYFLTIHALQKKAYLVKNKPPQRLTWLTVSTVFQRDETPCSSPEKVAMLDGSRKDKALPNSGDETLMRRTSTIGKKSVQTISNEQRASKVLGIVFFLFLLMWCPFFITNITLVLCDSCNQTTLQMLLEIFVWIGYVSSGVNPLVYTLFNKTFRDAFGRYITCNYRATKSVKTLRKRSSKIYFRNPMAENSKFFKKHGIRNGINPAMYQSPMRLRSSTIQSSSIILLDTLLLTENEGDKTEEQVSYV

SMILES	Ki [1]	Ki [2]	Ki [3]	Selectivity [4]	Selectivity [5]	Reversal [6]	ED50 [7]
Cc1ncccc1Oc1ccc(NC(=O)N2CCc3ccccc32)cn1	2000 nM	> 10000 nM	100 nM	20	> 100	–	–
CCCc1ncccc1Oc1ccc(NC(=O)N2CCc3cc(C)c(Cl)cc32)cn1	100 nM	158 nM	1.58 nM	60	100	18%	–
Cc1ncccc1Oc1ccc(NC(=O)N2CCc3c2cc(C(F)(F)F)c2c3CCO2)cn1	63.1 nM	501 nM	1.26 nM	50	400	–	9 mg/kg
Cc1cc2c(cc1Cl)N(C(=O)Nc1cnc(Oc3cccnc3C)nc1)CC2	63.1 nM	> 631 nM	3.16 nM	20	> 200	–	3.7 mg/kg
Cc1cc2c(cc1F)N(C(=O)Nc1ccc(Oc3cccnc3C)nc1)CC2	158 nM	794 nM	1.58 nM	100	500	46%	–
COc1cc2c(cc1C(F)(F)F)N(C(=O)Nc1cnc(Oc3cccnc3C)cc1C)CC2	251 nM	631 nM	200 nM	1.3	3	–	–
Cc1ncccc1Oc1ccc(NC(=O)N2CCc3cc(F)ccc32)cn1	5010 nM	> 10000 nM	39.8 nM	130	> 250	4%	–
Cc1cc2c(cc1Cl)CCN2C(=O)Nc1ccc(Oc2cccnc2C)nc1	126 nM	158 nM	1.26 nM	100	130	7.3%	–
Cc1cc2c(cc1C(F)(F)F)N(C(=O)Nc1ccc(Oc3cccnc3C)nc1)CC2 [SB-243213]	–	–	–	100	160	–	1 mg/kg
Cc1cc2c(cc1Cl)N(C(=O)Nc1ccc(Oc3cccnc3C)nc1)CC2	–	–	–	100	160	–	–
Cc1cc2c(cc1Cl)N(C(=O)Nc1cnc(Oc3cccnc3C)c(C)c1)CC2	31.6 nM	126 nM	1.58 nM	20	80	–	0.8 mg/kg
Cc1ncccc1Oc1ccc(NC(=O)N2CCc3cc(Cl)ccc32)cn1	2000 nM	> 10000 nM	6.31 nM	320	> 1600	40%	–
Cc1cc2c(cc1Br)N(C(=O)Nc1ccc(Oc3cccnc3C)nc1)CC2	63.1 nM	158 nM	0.794 nM	80	200	49%	–
Cc1cc2c(cc1Cl)N(C(=O)Nc1ccc(Oc3cnccc3C)nc1)CC2	31.6 nM	7.94 nM	1 nM	30	8	–	–
Cc1ncccc1Oc1ccc(NC(=O)N2CCc3c2cc(Cl)c(C)c3Cl)cn1	39.8 nM	63.1 nM	1 nM	40	60	85%	–
Cc1ncccc1Oc1ccc(NC(=O)N2CCc3cc(Br)c(C(F)(F)F)cc32)cn1	100 nM	126 nM	1.26 nM	80	100	–	2 mg/kg
Cc1ncccc1Oc1ccc(NC(=O)N2CCc3c(Cl)cccc32)cn1	2510 nM	> 10000 nM	15.8 nM	160	> 630	6%	–
Cc1ccc2c(c1Br)CCN2C(=O)Nc1ccc(Oc2cccnc2C)nc1	251 nM	> 1000 nM	1.58 nM	160	> 630	0%	–
Cc1ncccc1Oc1ccc(NC(=O)N2CCc3cc(Br)ccc32)cn1	631 nM	> 3980 nM	3.16 nM	200	> 1300	10%	–
Cc1ncccc1Oc1ccc(NC(=O)N2CCc3c2cccc3C(F)(F)F)cn1	> 10000 nM	> 10000 nM	200 nM	> 50	> 50	–	–
Cc1ncccc1Oc1ccc(NC(=O)N2CCc3cc(F)c(Cl)cc32)cn1	631 nM	501 nM	6.31 nM	100	80	16%	–

SMILES	Ki [1]	Ki [2]	Ki [3]	Selectivity [4]	Selectivity [5]	Reversal [6]	ED50 [7]
Cc1cc2c(cc1Cl)N(C(=O)Nc1cnc(Oc3cccnc3C)c(Cl)c1)CC2	20 nM	126 nM	0.631 nM	30	200	–	> 5 mg/kg
Cc1ncccc1Oc1ccc(NC(=O)N2CCc3ccc(Cl)cc32)cn1	794 nM	316 nM	3.98 nM	200	80	3%	–
COc1cc2c(cc1C(F)(F)F)N(C(=O)Nc1ccc(Oc3cccnc3C)nc1)CC2	–	–	–	80	1300	–	–
Cc1cc2c(cc1Cl)N(C(=O)Nc1ccc(Oc3cccnc3Cl)nc1)CC2	50.1 nM	100 nM	1.26 nM	40	80	–	4.5 mg/kg
Cc1ncccc1Oc1ccc(NC(=O)N2CCc3ccc(C(F)(F)F)cc32)cn1	398 nM	158 nM	5.01 nM	80	30	–	–
CCc1ncccc1Oc1ccc(NC(=O)N2CCc3cc(C)c(Cl)cc32)cn1	50.1 nM	200 nM	2 nM	25	100	–	1.8 mg/kg
Cc1cc2c(cc1Cl)N(C(=O)Nc1ccc(Oc3cnccc3Cl)nc1)CC2	12.6 nM	15.8 nM	0.501 nM	25	30	–	–
CSc1cc2c(cc1C(F)(F)F)N(C(=O)Nc1ccc(Oc3cccnc3C)nc1)CC2	39.8 nM	251 nM	0.398 nM	100	630	31%	–
Cc1ncccc1Oc1ccc(NC(=O)N2CCc3cc(I)ccc32)cn1	316 nM	1580 nM	3.16 nM	100	500	14%	–
Cc1ncccc1Oc1ccc(NC(=O)N2CCc3c2ccc(Cl)c3Cl)cn1	501 nM	3160 nM	3.16 nM	160	1000	4%	–
Cc1ncccc1Oc1ccc(NC(=O)N2CCc3cc(Cl)c(Cl)cc32)cn1	316 nM	251 nM	2 nM	160	130	32%	–
Cc1cc2c(cc1C(F)(F)F)N(C(=O)Nc1ccc(Oc3cccnc3C)nn1)CC2	126 nM	398 nM	3.16 nM	40	130	–	1.2 mg/kg
CCc1cc2c(cc1C(F)(F)F)N(C(=O)Nc1ccc(Oc3cccnc3C)nc1)CC2	126 nM	501 nM	2.51 nM	50	200	12%	–
Cc1cc2c(cc1C(F)(F)F)N(C(=O)Nc1cnc(Oc3cccnc3C)cn1)CC2	79.4 nM	631 nM	2 nM	40	320	–	3.6 mg/kg
Cc1cc2c(cc1Cl)N(C(=O)Nc1ccc(Oc3cccnc3C)nn1)CC2	158 nM	1580 nM	2 nM	80	800	–	1.6 mg/kg
Cc1cc2c(cc1C(F)(F)F)N(C(=O)Nc1ccc(Oc3cncnc3C)nc1)CC2	12.6 nM	79.4 nM	2 nM	6	40	–	–
Cc1cc2c(cc1Cl)N(C(=O)Nc1ccc(Oc3cccnc3C(C)C)nc1)CC2	200 nM	794 nM	126 nM	2	6	–	–
Cc1cc2c(cc1C(F)(F)F)N(C(=O)Nc1cnc(Oc3cccnc3C)c(Cl)c1)CC2	39.8 nM	251 nM	1.58 nM	25	160	–	> 5 mg/kg
Cc1ncccc1Oc1ccc(NC(=O)N2CCc3c(Br)cccc32)cn1	> 2000 nM	> 6310 nM	15.8 nM	> 130	> 400	3%	–
Cc1ncccc1Oc1ccc(NC(=O)N2CCc3cc(C(F)(F)F)ccc32)cn1	631 nM	2510 nM	3.98 nM	160	630	–	2.1 mg/kg
